In PMC9100673, “Acridine Based N-Acylhydrazone Derivatives as Potential Anticancer Agents: Synthesis, Characterization and ctDNA/HSA Spectroscopic Binding Properties” (Molecules, 2022):

Molecular target: T1, human serum albumin (HSA) (Homo sapiens, UniProt P02768)
T1 construct: purchased Sigma (St. Louis, MO, USA)
Test: Three-dimensional fluorescence spectra of HSA
Assay type: binding
Details: HSA:compound 1:1, 4 μM, 25 °C
Excerpt: A useful method for studying drug-HSA interactions is three-dimensional fluorescence spectroscopy, which can offer information about the structural changes to the polypeptide backbone structure and the microenvironment polarity around the Trp and Tyr residues. Peak a (λex = λem) is […], while peak b (2λex = λem) is […]. The change at peak 1 (280/339 nm) reflects a change in the polarity of the microenvironment around the Trp and Tyr residues, and peak 2 (230/336 nm) characterizes the polypeptide backbone structure. […] The fluorescence intensities of both peaks decreased after the addition of derivatives 3a–3d, with a more pronounced decrease observed in the fluorescence intensity of peak 2. […] The changes observed in the 3D spectra correlate with the results of earlier quenching fluorescence experiments. […]
The 3DF spectra of HSA were performed in the absence and presence of compounds 3a–3d using an excitation wavelength range of 200–350 nm and an emission wavelength range of 200–600 nm at room temperature (25 °C). The 3D spectra were recorded for 4 μM of HSA in a 2 mL buffer solution (100 mM NaCl and 10 mM Tris-HCl buffer pH = 7.4) and for the HSA:3a–3d complexes at a concentration ratio 1:1. […]

T1 sequence (P02768 25-609): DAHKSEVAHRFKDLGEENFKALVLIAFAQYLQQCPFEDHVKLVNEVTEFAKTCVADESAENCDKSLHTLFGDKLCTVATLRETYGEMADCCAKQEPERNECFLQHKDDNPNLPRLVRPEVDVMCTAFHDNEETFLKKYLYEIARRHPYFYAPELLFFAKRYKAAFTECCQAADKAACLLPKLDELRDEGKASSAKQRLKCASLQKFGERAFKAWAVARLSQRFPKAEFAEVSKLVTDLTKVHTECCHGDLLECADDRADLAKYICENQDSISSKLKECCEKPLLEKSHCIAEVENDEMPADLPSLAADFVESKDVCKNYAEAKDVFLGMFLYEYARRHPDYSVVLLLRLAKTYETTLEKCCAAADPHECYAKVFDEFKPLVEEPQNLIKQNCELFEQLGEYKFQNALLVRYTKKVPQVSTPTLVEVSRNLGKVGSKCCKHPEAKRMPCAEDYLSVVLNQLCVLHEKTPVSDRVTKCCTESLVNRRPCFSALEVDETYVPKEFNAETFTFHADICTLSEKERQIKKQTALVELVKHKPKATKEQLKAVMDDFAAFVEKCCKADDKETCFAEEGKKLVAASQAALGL

O=C(N/N=C/c1cccc2cc3ccccc3nc12)c1ccccc1 [3a, N′-[(E)-(Acridin-4-yl)methylidene]benzohydrazide]
blue shift of peak 1 (280/339 nm): 8 nm
blue shift of peak 2 (230/336 nm): 10 nm
